According to US10239849B2 (Merck Sharp & Dohme Corp., priority 2015, dated 2019):

Experiments:
[1] = target: T1, glutathione-S-transferase (GST) tagged LXRalpha LBD (ligand binding domain) (Homo sapiens, UniProt Q13133); assay: LanthaScreen TR-FRET Liver X Receptor Coactivator Assay, LXR alpha-LBD; type: biochemical; settings: for Emax: efficacy in relation to reference dual agonist T1317, read-out: LXR alpha activity at max dose (%) (Emax); for EC50: potency (Inflection Point) of co-activator recruitment, TR-FRET, read-out: LXR alpha IP
T1 construct: purchased Invitrogen pv4655
T1 sequence (Q13133 209-447 limits assumed): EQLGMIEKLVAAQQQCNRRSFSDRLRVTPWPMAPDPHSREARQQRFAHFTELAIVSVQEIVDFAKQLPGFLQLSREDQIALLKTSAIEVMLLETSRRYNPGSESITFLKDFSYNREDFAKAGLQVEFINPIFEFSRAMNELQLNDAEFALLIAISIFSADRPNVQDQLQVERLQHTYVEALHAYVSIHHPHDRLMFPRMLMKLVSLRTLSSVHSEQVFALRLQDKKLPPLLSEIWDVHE
Outline: (§1)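 TR-FRET coactivator recruitment read-out: compounds first received either LBD, followed by a mix of terbium-labelled anti-GST antibody and fluorescein coactivator peptide. Signal measured by time-resolved FRET once plates had incubated at room temperature.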

[2] = target: T2, glutathione-S-transferase (GST) tagged LXRbeta LBD (ligand binding domain) (Homo sapiens, UniProt P55055); assay: LanthaScreen TR-FRET Liver X Receptor Coactivator Assay, LXR beta-LBD; type: biochemical; settings: for Emax: efficacy in relation to reference dual agonist T1317, read-out: LXR beta activity at max dose (%) (Emax); for EC50: potency (Inflection Point) of co-activator recruitment, TR-FRET, read-out: LXR beta IP
T2 construct: purchased Invitrogen pv4658.pps
T2 sequence (P55055 222-460 limits assumed): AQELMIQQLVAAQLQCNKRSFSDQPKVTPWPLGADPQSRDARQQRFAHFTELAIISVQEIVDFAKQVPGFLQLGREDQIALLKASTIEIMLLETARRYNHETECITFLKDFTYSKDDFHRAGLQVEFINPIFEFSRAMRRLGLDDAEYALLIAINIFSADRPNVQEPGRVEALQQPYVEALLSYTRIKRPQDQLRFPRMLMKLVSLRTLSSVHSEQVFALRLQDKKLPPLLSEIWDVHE
Outline: as §1

Compound | Emax [1] | EC50 [1] | Emax [2] | EC50 [2]
CO[C@@](C(=O)N1CCN(c2ncc(-c3ccc(C(=O)N(C)C)c(Cl)c3)cc2C#N)CC1)(c1ccccc1)C(F)(F)F [Example 2-35, 2-chloro-4-(5-cyano-6-{4-[(2R)-3,3,3-trifluoro-2-methoxy-2-phenylpropanoyl]piperazin-1-yl}pyridin-3-yl)-N,N-dimethylbenzamide] | 62% | 54100 nM | 70% | 75 nM
CN(C)C(=O)c1ccc(-c2cnc(N3CCN(C(=O)C(O)(CCc4ccccc4)C(F)(F)F)CC3)c(C#N)c2)cc1Cl (stereo not shown) [Example 2-37, 2-chloro-4-(5-cyano-6-{4-[2-hydroxy-4-phenyl-2-(trifluoromethyl)butanoyl]piperazin-1-yl}pyridin-3-yl)-N,N-dimethylbenzamide] | 55% | 97600 nM | 58% | 735 nM
CN(C)C(=O)c1ccc(-c2cnc(N3CC4CC3CN4C(=O)OC(C)(C)C)c(C#N)c2)cc1Cl (stereo not shown) [Example 8-5, tert-butyl 5-{5-[3-chloro-4-(dimethylcarbamoyl)phenyl]-3-cyanopyridin-2-yl}-2,5-diazabicyclo[2.2.1]heptane-2-carboxylate] | 37% | 16800 nM | 53% | 252 nM
COc1cc(-c2cnc(N3CCN(C(=O)OC(C)(C)C)CC3)c(C#N)c2)ccc1C(=O)N(C)C [Example 8-2, tert-butyl 4-{3-cyano-5-[4-(dimethylcarbamoyl)-3-methoxyphenyl]pyridin-2-yl}piperazine-1-carboxylate] | 28% | 25800 nM | 73% | 846 nM

Compounds with a lower EC50 [1], results first:

Emax [1] | EC50 [1] | Emax [2] | EC50 [2] | Compound
89% | 11700 nM | 59% | 300 nM | CC(C)(C)OC(=O)N1CCN(c2ncc(-c3ccc(C(=O)N4CCCCC4)c(Cl)c3)cc2C#N)CC1 [Example 5-11, tert-butyl 4-{5-[3-chloro-4-(piperidin-1-ylcarbonyl)phenyl]-3-cyanopyridin-2-yl}piperazine-1-carboxylate]
52% | 10500 nM | 93% | 200 nM | CN(C)C(=O)c1ccc(-c2cnc(N3CCN(S(=O)(=O)C(F)F)CC3)c(C#N)c2)cc1Cl [Example 1-3, 2-chloro-4-(5-cyano-6-{4-[(difluoromethyl)sulfonyl]piperazin-1-yl}pyridin-3-yl)-N,N-dimethylbenzamide]
63% | 618 nM | 88% | 39 nM | CN(C)C(=O)c1ccc(-c2ccc(N3CCN(C(=O)c4c(F)cccc4Cl)CC3)c(Cl)c2)cc1Cl [Example 4-5, 3,3′-dichloro-4′-{4-[(2-chloro-6-fluorophenyl)carbonyl]piperazin-1-yl}-N,N-dimethylbiphenyl-4-carboxamide]
68% | 1460 nM | 91% | 43 nM | CC(C)(C)OC(=O)N1CCN(c2ncc(-c3ccc(C(=O)NCc4ncc[nH]4)c(Cl)c3)cc2C#N)CC1 [Example 5-16, tert-butyl 4-(5-{3-chloro-4-[(1H-imidazol-2-ylmethyl)carbamoyl]phenyl}-3-cyanopyridin-2-yl)piperazine-1-carboxylate]
33% | 1170 nM | 101% | 2 nM | CN(CCn1cncn1)C(=O)c1ccc(-c2cnc(N3CCN(C(=O)[C@](O)(c4ccccc4)C(F)(F)F)CC3)c(C#N)c2)cc1Cl [Example 6-1, 2-chloro-4-(5-cyano-6-{4-[(2R)-3,3,3-trifluoro-2-hydroxy-2-phenylpropanoyl]piperazin-1-yl}pyridin-3-yl)-N-methyl-N-[2-(1H-1,2,4-triazol-yl)ethyl]benzamide]
57% | 1340 nM | 97% | 56 nM | Cc1cccc(COC(=O)N2CCN(c3ncc(-c4ccc(C(=O)N(C)C)c(Cl)c4)cc3C#N)CC2)c1 [Example 3-5, 3-methylbenzyl 4-{5-[3-chloro-4-(dimethylcarbamoyl)phenyl]-3-cyanopyridin-2-yl}piperazine-1-carboxylate]
